In general, EC50 refers to the midpoint of the concentration-response curve.

The structures appear in SMILES notation. Where two headings read alike, the source gives them in different places.

We go through 1 compound from US11938136B2, “Compositions for treating spinal muscular atrophy” (Hoffmann-La Roche Inc., priority 2015, dated 2024).

For one assay, the system named is human SMN2 pre-mRNA. As to the kind of experiment: SMN2 splicing in SMA Type 1 fibroblasts (RT-PCR). The assay is classed as cell-based. As to conditions: Fibroblast, 24 hours. As for the experimental part:
(A) SMN2 splicing in SMA Type 1 fibroblasts. (B) SMN protein in SMA Type 1 fibroblasts. (C) SMN protein in SMA Type 1 motor neurons. (D) SMN1 and SMN2 splicing in whole blood derived from HV. Fibroblasts from SMA Type 1 patients were cultured for 24 hours (A) or 48 hours (B); motor neurons from SMA Type 1 patient iPSCs (induced Pluripotent Stem Cells) were cultured for 72 hours (C) and whole blood cells from healthy volunteers (HV) for 4 hours (D) in the presence of the compound of Example 20. SMN splicing was assessed by RT-PCR, and SMN protein levels were assessed by homogenous time-resolved fluorescence (HTRF) in fibroblast lysates, and by immunostaining for SMN in motor neurons. Data represent means standard error (SEM) of 3 evaluations per data point and are expressed as fold change vs. untreated controls.
The compound of Example 20 is an orally available small molecule SMN2 splicing modifier for the treatment of SMA. It has been found, that the compound of Example 20 effectively corrects the dysfunctional splicing of the human SMN2 pre-mRNA in cultured patient cells (SMA Type 1 fibroblasts) by shifting the balance of the alternative splicing reaction completely towards the inclusion of SMN2 exon 7 and the production of the full-length mRNA (FIG. 1A: EC50 29±8 nM for FL, 12±1 nM for Δ7 mRNA). […] EC1.5× was 4.7±0.7 nM and the maximum induction was 20-fold.

Assay [1] has as its system splicing events and expression levels of genes. Description: Transcriptional profiling analysis. The assay is classed as cell-based. The text has this:
The specific function of STRN3, SLC25A17, and GGCT and consequences of their dysregulation have not been elucidated so far. These three genes are also consistently found to be affected at the higher dose (5-fold higher than the EC90), a dose used in order to illustrate the maximum effect of this compound. Splicing events of 11 genes, including the genes FoxM1 and MADD, were affected at the higher dose but not by the lower dose. FoxM1 and MADD have been described as being involved in cell cycle regulation and apoptosis, respectively.

Assay [2] has as its system SMN protein. Description: SMN protein in brain and quadriceps muscle of C/C-allele mice (HTRF). Format: in vivo, mouse. As for the experimental part:
(§1) (A) SMN protein in brains of C/C-allele mice. (B) SMN protein in brains of SMNΔ7 mice. (C) SMN protein in quadriceps muscle of C/C-allele mice. (D) SMN protein in quadriceps muscle of SMNΔ7 mice. C/C-allele mice and SMNΔ7 mice were treated with the compound of Example 20. One hour after the last dose, brains and quadriceps muscles were collected and levels of SMN protein were assessed by HTRF. Data represent means SEM of 5-6 animals per group and are expressed as fold change vs. vehicle-treated controls. *=p<0.05, **=p<0.01, ***=p<0.001 vs. untreated controls.
(§2) In vivo, the compound of Example 20 increases SMN protein in the brain and muscle in the severe SMNΔ7 model and the milder C/C-allele model, carrying human SMN2 transgenes. Adult C/C-allele mice were treated for 10 days with vehicle or the compound of Example 20 (1, 3 or 10 mg/kg PO, daily), and 3 days old (P3) SMNΔ7 mice were treated for 7 days with vehicle or the compound of Example 20 (0.1, 0.3, 1 or 3 mg/kg IP, daily). […] In SMNΔ7 mice, the SMN protein increase was only partial in both brain and muscle, reaching approximately 43% (brain) and 55% (muscle) of protein levels in heterozygous mice.
(Time-resolved FRET reads energy transfer from a long-lived donor to a nearby acceptor.)

The test system of assay [3] is SMN protein. As to the kind of experiment: SMN protein assay (HTRF) in SMA patient fibroblast cells. The assay is classed as cell-based, human. As to conditions: SMA patient fibroblasts. The text has this: The term “EC1.5x concentration for SMN protein expression” (or “EC1.5x SMN protein”) is defined as that concentration of test compound that is effective in producing 1.5 times the amount of SMN protein in an SMA patient fibroblast cell compared to the amount produced from the vehicle control.
(A) SMN2 splicing in SMA Type 1 fibroblasts. (B) SMN protein in SMA Type 1 fibroblasts. (C) SMN protein in SMA Type 1 motor neurons. (D) SMN1 and SMN2 splicing in whole blood derived from HV. […] SMN splicing was assessed by RT-PCR, and SMN protein levels were assessed by homogenous time-resolved fluorescence (HTRF) in fibroblast lysates, and by immunostaining for SMN in motor neurons. Data represent means standard error (SEM) of 3 evaluations per data point and are expressed as fold change vs. untreated controls.
The SMN HTRF (homogeneous time resolved fluorescence) assay is used to quantify the level of SMN protein in SMA patient fibroblast cells treated with test compounds. […]
Cells are thawed and cultured in DMEM-10% FBS for 72 hours. Cells are trypsinized, counted and re-suspended to a concentration of 25,000 cells/mL in DMEM-10% FBS. […] Fluorescence for each well of the plate at 665 nm and 620 nm is measured on an EnVision multilabel plate reader (Perkin-Elmer). […]

Assay [4] concerns SMN protein. As to the kind of experiment: SMN protein in brain and quadriceps muscle of SMNΔ7 mice (HTRF). Format: in vivo, mouse. As for the experimental part:
as §1, §2

Consider `Cc1cn2nc(-c3cc(=O)n4cc(N5CCNC6(CC6)C5)ccc4n3)cc(C)c2n1` [Example 20, 7-(4,7-diazaspiro[2.5]octan-7-yl)-2-(2,8-dimethylimidazo[1,2-b]pyridazin-6-yl)pyrido[1,2-a]pyrimidin-4-one], for which the values for the EC50 with human SMN2 pre-mRNA (read-out: EC50 for FL SMN2 mRNA) and in the assay on human SMN2 pre-mRNA (read-out: EC50 for Δ7 SMN2 mRNA) were 29 ± 8 nM and 12 ± 1 nM, respectively. In addition, the “number of genes whose expression levels were changed (p<0.01)” value in assay [1] (121 nM dose) was found to be 0. In addition, in assay [1] (121 nM, compared to control), the “genes whose splicing events were affected” value was “STRN3, SLC25A17 and GGCT”. The “number of genes whose splicing events were affected at the higher dose but not by the lower dose” value in assay [1] (higher dose, 5-fold higher than the EC90, including FoxM1 and MADD) is recorded as 11. Further, in assay [1] (read-out: EC90 (therapeutically relevant concentration)), the EC90 came to 121 nM. Also, the “SMN levels in muscle compared with heterozygous mice” value with SMN protein [2] (C/C-allele mice, 10 mg/kg dose) is reported as “no different from those in heterozygous mice”. The “maximum increase of SMN protein levels in brain and muscle tissue” value with SMN protein [2] (adult C/C-allele mice, 10 mg/kg PO daily, 10 days) was 2-3 fold; in the assay on SMN protein [4] (neonatal SMNΔ7 mice, 1-3 mg/kg IP daily, 7 days from P3), 2-3 fold. The “maximal increase in SMN protein above untreated cells” value in the assay on SMN protein [3] is reported as 60-80%. Also, the “SMN protein in brain, of protein levels in heterozygous mice” value with SMN protein [4] (SMNΔ7 mice) was “approximately 43%”. In addition, in the assay on SMN protein [4] (SMNΔ7 mice), the “SMN protein in muscle, of protein levels in heterozygous mice” value is given as roughly 55%.
